Values belong to the molecule of their own block, whether it stands above or below them.
Legend:
Type in all cases: physicochemical
[1] = Solubility assessment as a function of HPβCD concentration
Protocol: Solubility studies were performed by the addition of a known mass of 5(6)-methoxy-2-[[(4-methoxy-3,5-dimethyl-2-pyridinyl)-methyl]sulfinyl]-1H- benzimidazole and/or HP CD to a given volume of solvent system. Solubilities were determined by observation, as the maximum concentration at which 5(6)-methoxy-2-[[(4-methoxy-3,5-dimethyl-2-pyridinyl)-methyl]sulfinyl]-1H- benzimidazole completely dissolved. Additionally, concentrations of 5(6)-methoxy-2-[[(4-methoxy-3,5-dimethyl-2-pyridinyl)-methyl]sulfinyl]-1H- benzimidazole and HP C D at set molar ratios were solubilized in systems of high pH (adjusted as high as 12.2, with 1N NaOH), the pH was adjusted (using 2N HCl) in a stepwise downward manner until precipitation occurred.
The solubility of 5(6)-methoxy-2-[[(4-methoxy-3,5-dimethyl-2-pyridinyl)-methyl]sulfinyl]-1H- benzimidazole was assessed as a function of HPβCD concentration in water.
The procedure according to Example 86 was repeated except that water with a borate buffer (pH of 8) was employed.
The procedure according to Example 86 was repeated except that water with a phosphate buffer (pH of 11) was employed.

[2] = FT-Raman quantitation of 5-/6-methoxy isomers in omeprazole API, partial least squares
Protocol: Nicolet Instruments Corp., Madison, Wis.). The present method is conducted in three steps: preparation of standards, establishing a standard curve, and analysis of samples. Typically, a minimum of 4 to 5 standards are prepared. […] In addition to the USP standard, it is necessary to use a standard which is very low in 5-methoxy isomer concentration, preferably in pure form, one which has a high concentration of 5-methoxy isomer such as in the range of about 40%, and a series of at least two other standards distributed over the range from about 5% to about 25%. To establish the standard curve, each standard is run in at least triplicate using the step and repeat sampling device operating in the continuous mode with 15 replicates for each standard preparation and 500 scans per replicate, using a resolution of 2 cm^-1, and a laser power of about 0.7 watt, under instrumental parameters set to generate an acceptable S/N. […] Using such an algorithm, the area percent of the 6-methoxy isomer of each standard having both the 5- and 6-methoxy isomer is determined. The standard deviation for each set of replicates is less than about 0.7% and the average standard deviation for the average of all runs and replicates of a given standard is less than about 0.7% or the resulting data should be investigated. […] Correlation coefficients should be at or above about 0.98 among all standards. Each API sample is then analyzed using the method similar to that described for establishing the standards, except at least triplicate preparations with at least five replicates per sample preparation, and at least 100 scans per replicate with triplicate preparations per sample. Using the above-referenced partial least squares analysis, the percent 6-methoxy isomer, and thus the percent 5-methoxy isomer is determined for each scan and the average of the 15 spectra is calculated. The standard deviation (SD) for each set of replicates is less than about 1.0%, and the average standard deviation of all runs and replicates of a given sample is less than about 1.0%. If the standard deviation is above 1.0%, the results should be investigated. High standard deviation values are an indication of variability which may be caused by small amounts of sample burning. If this is suspected, the preparation should be run again.

[3] = FT-Raman determination of 5-/6-methoxy isomers in omeprazole API, classical least squares; conditions: commercial API lots
Protocol: This method also used an FT-Raman spectrometer (Nicolet Nexus 670 with an FT-Raman accessory, 1064 nm laser, and a step and repeat sampling device). This method, too, is conducted in three stages: preparation of standards, establishing a standard curve, and analysis of samples. Typically a minimum of 4 to 5 standards are prepared. The present FT-Raman method for API and drug product analysis uses the same method set forth above to prepare and establish the standard curve, including preferred aspects, as the method set forth for the more quantitative API method relative to the number of preparations, replicates, and scans per replicate of each standard, resolution, sampling device, deconvolution of standard peaks, determination of peak area, and standard deviation for each set of replicates and the average of all runs and replicates of a given standard. […] In general, the method is performed by a ratio of a peak related to the 6-methoxy isomer (about 1627 cm^-1) to a suitable internal omeprazole band (about 1587 cm^-1). […] Correlation coefficients of the standard curve are at or above about 0.95 among all standards. […] Using the above-referenced corrected classical least squares analysis, the percent 6-methoxy isomer, and thus the percent 5-methoxy isomer, is determined for each scan, and the average of the 15 spectra is calculated.

[4] = commercial API lots, listed as 01
[5] = commercial API lots, listed as 02
[6] = commercial API lots, listed as 03

Structure (SMILES): COc1ccc2[nH]c([S+]([O-])Cc3ncc(C)c(OC)c3C)nc2c1 (centres unmarked) [5(6)-methoxy-2-[[(4-methoxy-3,5-dimethyl-2-pyridinyl)-methyl]sulfinyl]-1H-benzimidazole]
solubility as a function of HPβCD concentration ([1]; borate buffer, pH of 8): increase linearly | solubility as a function of HPβCD concentration ([1]; phosphate buffer, pH of 11): increase linearly | solubility as a function of HPβCD concentration ([1]; water): increase linearly

% 5-isomer ([2]; standards): 5.875% | % 6-isomer ([2]; standards): 94.125%
Structure (SMILES): COc1ccc2nc([S+]([O-])Cc3ncc(C)c(OC)c3C)[nH]c2c1 (centres unmarked) [Example 1, 6-methoxy-2-[[(4-methoxy-3,5-dimethyl-2-pyridinyl)-methyl]sulfinyl]-1H-benzimidazole]

% 5-isomer ([2]; standards): 0.000% | % 6-isomer ([2]; standards): 100.000%
Structure (SMILES): COc1ccc2nc([S+]([O-])Cc3ncc(C)c(OC)c3C)[nH]c2c1 (centres unmarked) [Example 1a, 6-methoxy-2-[[(4-methoxy-3,5-dimethyl-2-pyridinyl)methyl]sulfinyl]-1H-benzimidazole]

Structure (SMILES): COc1ccc2[nH]c([S+]([O-])Cc3ncc(C)c(OC)c3C)nc2c1 (centres unmarked) [Example 36, (5)6-methoxy-2-[[(4-methoxy-3,5-dimethyl-2-pyridinyl)-methyl]sulfinyl]-1H-benzimidazole]
% 5-isomer ([2]; standards): 16.005% | % 6-isomer ([2]; standards): 83.995%

Structure (SMILES): COc1ccc2[nH]c([S+]([O-])Cc3ncc(C)c(OC)c3C)nc2c1 (centres unmarked) [Example 37, (5)6-methoxy-2-[[(4-methoxy-3,5-dimethyl-2-pyridinyl)-methyl]sulfinyl]-1H-benzimidazole]
% 5-isomer ([2]; standards): 12.246% | % 6-isomer ([2]; standards): 87.754%

Structure (SMILES): COc1ccc2[nH]c([S+]([O-])Cc3ncc(C)c(OC)c3C)nc2c1 (centres unmarked) [Example 41, (5)6-methoxy-2-[[(4-methoxy-3,5-dimethyl-2-pyridinyl)-methyl]sulfinyl]-1H-benzimidazole]
% 5-isomer ([2]; standards): 16.414% | % 6-isomer ([2]; standards): 83.587%

Structure (SMILES): COc1ccc2[nH]c([S+]([O-])Cc3ncc(C)c(OC)c3C)nc2c1 (centres unmarked) [Example 44, (5)6-methoxy-2-[[(4-methoxy-3,5-dimethyl-2-pyridinyl)-methyl]sulfinyl]-1H-benzimidazole]
% 5-isomer ([2]; standards): 41.258% | % 6-isomer ([2]; standards): 58.742%

Structure (SMILES): COc1ccc2[nH]c([S+]([O-])Cc3ncc(C)c(OC)c3C)nc2c1 (centres unmarked) [Lot 01]
% 5-isomer [2, 4]: 7.50% | % 6-isomer [2, 4]: 92.50% | % 5-isomer ([3]; listed as 01): 6.14% | % 6-isomer ([3]; listed as 01): 93.86%

Structure (SMILES): COc1ccc2[nH]c([S+]([O-])Cc3ncc(C)c(OC)c3C)nc2c1 (centres unmarked) [Lot 02]
% 5-isomer [2, 5]: 8.02% | % 6-isomer [2, 5]: 91.98% | % 5-isomer ([3]; listed as 02): 6.56% | % 6-isomer ([3]; listed as 02): 93.44%

Structure (SMILES): COc1ccc2[nH]c([S+]([O-])Cc3ncc(C)c(OC)c3C)nc2c1 (centres unmarked) [Lot 03]
% 5-isomer [2, 6]: 7.61% | % 6-isomer [2, 6]: 92.39% | % 5-isomer ([3]; listed as 03): 6.40% | % 6-isomer ([3]; listed as 03): 93.60%

Structure (SMILES): COc1ccc2[nH]c([S+]([O-])Cc3ncc(C)c(OC)c3C)nc2c1 (centres unmarked) [USP]
% 5-isomer ([2]; standards): 7.250% | % 6-isomer ([2]; standards): 92.750%

From US6268385A, “Dry blend pharmaceutical formulations” (priority 2000, dated 2001)
